# Measurements as given in US10683260B2, “Crystalline form of sacubitril sodium salt” (NORATECH PHARMACEUTICALS, INC., priority 2016, dated 2020).
# What was measured:
# [1] = free acid; background statement; cited from earlier work
# [2] = Determination of the hygroscopicity (water absorption in artificial climate chamber); type: physicochemical; conditions: for Water absorption, %: open weighing bottle, 25±1° C., relative humidity 43.5±2%; for water content: open container, 25° C., relative humidity 43.5%, 3 hours
# Experimental: 1. Take a dry stuffed glass weighing bottle (outer diameter 50 mm, height 15 mm) in the artificial climate chamber (set temperature is 25±1° C., relative humidity is 43.5±2%) and weight it (m1).
# 2. Take the appropriate amount of the crystalline form in the present invention, and place it in the abovementioned weighing bottle and lay it inside the weighing bottle. The thickness of the test sample is generally about 1 mm. Weight the sample (m2).
# 3. Uncover the weighing bottle and place it with the bottle cap under constant temperature and humidity (set temperature is 25±1° C., relative humidity is 43.5±2%).
# 4. Put the cap back on the weighing bottle before weighing, and then weight it (m3). The water absorption percentage for each time point is calculated by the formula=(m3−m2)/(m2−m1)×100%.
# AT1 receptor = target: T1, AT1 receptor (Homo sapiens, UniProt P30556); conditions: AT1 versus AT2 receptor; background statement; cited from earlier work
# T1 sequence (P30556 1-359): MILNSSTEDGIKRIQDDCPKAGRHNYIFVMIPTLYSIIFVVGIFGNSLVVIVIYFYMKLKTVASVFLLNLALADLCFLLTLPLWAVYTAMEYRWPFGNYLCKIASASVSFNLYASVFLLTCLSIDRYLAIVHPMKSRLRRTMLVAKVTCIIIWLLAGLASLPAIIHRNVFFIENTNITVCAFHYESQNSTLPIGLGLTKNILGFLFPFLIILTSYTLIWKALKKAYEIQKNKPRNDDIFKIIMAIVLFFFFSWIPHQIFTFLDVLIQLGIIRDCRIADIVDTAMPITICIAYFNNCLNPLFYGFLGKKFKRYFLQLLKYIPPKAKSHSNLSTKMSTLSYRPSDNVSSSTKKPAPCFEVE
Compound,"Water absorption, % ([2]; 1.5 h) [%]","Water absorption, % ([2]; 3 h) [%]",also measured
"CCOC(=O)[C@H](C)C[C@@H](Cc1ccc(-c2ccccc2)cc1)NC(=O)CCC(=O)O [sacubitril, 4-{[(2S,4R)-1-([1,1′-biphenyl]-4-yl)-5-ethoxy-4-methyl-5-oxopentan-2-yl]amino}-4-oxobutanoic acid]",,,water solubility (in words) [1]: poor water solubility
CCOC(=O)[C@H](C)C[C@@H](Cc1ccc(-c2ccccc2)cc1)NC(=O)CCC(=O)[O-].[Na+] [C],1.2,2.4,water content ([2]; listed as crystalline form C): 2.4%
AngII,,,affinity for the AT1 receptor relative to the AT2 receptor (AT1 receptor): 300 times

# Now from value to compound, other results behind:
"Water absorption, % ([2]; 1.5 h) [%]","Water absorption, % ([2]; 3 h) [%]",Compound,also measured
0.6,1.4,CCOC(=O)[C@H](C)C[C@@H](Cc1ccc(-c2ccccc2)cc1)NC(=O)CCC(=O)[O-].[Na+] [A],water content ([2]; listed as crystalline form A): 1.4%
2.4,4.3,CCOC(=O)[C@H](C)C[C@@H](Cc1ccc(-c2ccccc2)cc1)NC(=O)CCC(=O)[O-].[Na+] [E],
1.5,3.2,CCOC(=O)[C@H](C)C[C@@H](Cc1ccc(-c2ccccc2)cc1)NC(=O)CCC(=O)[O-].[Na+] [D],
0.5,1.0,CCOC(=O)[C@H](C)C[C@@H](Cc1ccc(-c2ccccc2)cc1)NC(=O)CCC(=O)[O-].[Na+] [B],
8.3,11.0,"CCOC(=O)[C@H](C)C[C@@H](Cc1ccc(-c2ccccc2)cc1)NC(=O)CCC(=O)[O-].[Na+] [sacubitril sodium salt X, reference compound]","hygroscopicity (in words) ([2]; solid form, no conditions stated): great hygroscopicity"
